# Target: P. falciparum apicoplast DNA polymerase (Pf-apPOL) (Plasmodium falciparum, UniProt Q8ILY1)
# Assay: Fluorescence-based high-throughput DNA polymerase assay (molecular beacon), primary screen and dose-response;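 as to % inhibition ApPOL 90': test concentration in µM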;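 as to % inhibition apPOL 180': test concentration in µM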
# Assay type: biochemical
# Method in brief: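 Single-point screening used 10 µM compound with 20 nM polymerase, 20 nM hairpin substrate and 6 µM dNTPs for 90 min at 25 °C. Confirmatory titrations (2.5–80 µM) followed fluorescence at three times, and IC50 was derived from a fit including a cooperativity term n.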
# [1] = 'DNA Pol' of the 186 hits list (screen value); 90 min, 10 µM
# [2] = primary screen value, "DNA Pol"; 90 min, 10 µM
# [3] = supplemental file 2, sheet IC50 nontoxic compounds; Pf-apPOL
# Sequence of P. falciparum apicoplast DNA polymerase (Pf-apPOL) (Q8ILY1 entry or part of it): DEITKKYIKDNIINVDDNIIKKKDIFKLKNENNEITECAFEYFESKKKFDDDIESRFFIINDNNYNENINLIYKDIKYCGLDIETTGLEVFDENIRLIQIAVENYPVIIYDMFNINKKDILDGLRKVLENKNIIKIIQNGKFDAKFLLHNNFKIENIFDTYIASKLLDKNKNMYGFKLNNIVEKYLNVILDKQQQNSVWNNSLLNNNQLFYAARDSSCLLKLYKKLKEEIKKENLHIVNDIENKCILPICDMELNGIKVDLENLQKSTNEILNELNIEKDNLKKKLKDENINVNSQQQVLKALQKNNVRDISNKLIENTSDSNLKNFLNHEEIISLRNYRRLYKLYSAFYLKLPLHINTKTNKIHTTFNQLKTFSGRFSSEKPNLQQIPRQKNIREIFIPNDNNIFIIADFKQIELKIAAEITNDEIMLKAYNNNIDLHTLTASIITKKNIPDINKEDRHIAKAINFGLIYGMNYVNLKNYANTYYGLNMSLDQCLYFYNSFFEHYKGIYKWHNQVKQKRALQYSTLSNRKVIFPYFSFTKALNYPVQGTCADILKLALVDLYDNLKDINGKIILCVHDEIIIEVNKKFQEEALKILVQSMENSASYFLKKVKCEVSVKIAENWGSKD
structure (smiles),measurement,setting,value
"O=C1NN(c2ccc(Cl)c(Cl)c2)C(=O)/C1=C/c1ccc(-c2ccc3c(c2)C(=O)OC3)o1 [Molecule 90, O=C1NN(C(=O)/C/1=C/c1ccc(o1)c1ccc2c(c1)C(=O)OC2)c1ccc(c(c1)Cl)Cl]",DNA Pol,[1],51
same,% inhibition Apo pol 10',DRC-1; 10'; conc 2.5,36.4105%
same,% inhibition Apo pol 10',DRC-1; 10'; conc 5,68.8597%
same,% inhibition Apo pol 10',DRC-1; 10'; conc 10,88.9603%
same,% inhibition Apo pol 10',DRC-1; 10'; conc 20,93.857%
same,% inhibition Apo pol 10',DRC-1; 10'; conc 40,90.5867%
same,% inhibition Apo pol 10',DRC-1; 10'; conc 80,96.7456%
same,% inhibition Apol 90',DRC-1; 90'; conc 2.5,24.0232%
same,% inhibition Apol 90',DRC-1; 90'; conc 5,57.3373%
same,% inhibition Apol 90',DRC-1; 90'; conc 10,84.2476%
same,% inhibition Apol 90',DRC-1; 90'; conc 20,92.6423%
same,% inhibition Apol 90',DRC-1; 90'; conc 40,85.5188%
same,% inhibition Apol 90',DRC-1; 90'; conc 80,95.1265%
same,% inhibition apPOL 180',DRC-1; 180'; conc 2.5,13.8146%
same,% inhibition apPOL 180',DRC-1; 180'; conc 5,43.9311%
same,% inhibition apPOL 180',DRC-1; 180'; conc 10,78.9656%
same,% inhibition apPOL 180',DRC-1; 180'; conc 20,91.6394%
same,% inhibition apPOL 180',DRC-1; 180'; conc 40,79.8129%
same,% inhibition apPOL 180',DRC-1; 180'; conc 80,94.9011%
same,% inhibition Apo pol 5',DRC-2; 5'; conc 2.5,31%
same,% inhibition Apo pol 5',DRC-2; 5'; conc 5,10%
same,% inhibition Apo pol 5',DRC-2; 5'; conc 10,34%
same,% inhibition Apo pol 5',DRC-2; 5'; conc 20,38%
same,% inhibition Apo pol 5',DRC-2; 5'; conc 40,61%
same,% inhibition Apo pol 5',DRC-2; 5'; conc 80,63%
same,% inhibition Apo pol 5',DRC-2; 5'; concentration 5,10%
same,% inhibition Apo pol 5',DRC-2; 5'; concentration 10,34%
same,% inhibition Apo pol 5',DRC-2; 5'; concentration 80,63%
same,% inhibition Apol 40',DRC-2; 40'; conc 2.5,33%
same,% inhibition Apol 40',DRC-2; 40'; conc 5,10%
same,% inhibition Apol 40',DRC-2; 40'; conc 10,37%
same,% inhibition Apol 40',DRC-2; 40'; conc 20,42%
same,% inhibition Apol 40',DRC-2; 40'; conc 40,68%
same,% inhibition Apol 40',DRC-2; 40'; conc 80,79%
same,% inhibition Apol 40',DRC-2; 40'; concentration 5,10%
same,% inhibition ApPOL 90',DRC-2; 90'; conc 2.5,30%
same,% inhibition ApPOL 90',DRC-2; 90'; conc 5,9%
same,% inhibition ApPOL 90',DRC-2; 90'; conc 10,35%
same,% inhibition ApPOL 90',DRC-2; 90'; conc 20,40%
same,% inhibition ApPOL 90',DRC-2; 90'; conc 40,67%
same,% inhibition ApPOL 90',DRC-2; 90'; conc 80,82%
same,% inhibition apPOL 180',DRC-2; 180'; conc 2.5,24%
same,% inhibition apPOL 180',DRC-2; 180'; conc 5,6%
same,% inhibition apPOL 180',DRC-2; 180'; conc 10,29%
same,% inhibition apPOL 180',DRC-2; 180'; conc 20,34%
same,% inhibition apPOL 180',DRC-2; 180'; conc 40,63%
same,% inhibition apPOL 180',DRC-2; 180'; conc 80,83%
same,% inhibition apPOL 180',DRC-2; 180'; concentration 20,34%
same,% inhibition apPOL 180',DRC-2; 180'; concentration 40,63%
same,DNA Pol,[2],51
O=C1NN(c2ccc(Cl)c(Cl)c2)C(=O)/C1=C/c1ccc(-c2ccc3c(c2)C(=O)OC3)o1 [Molecule 90],IC50,[3],3.43 µM
"C=CC1=C(C)c2cc3[nH]c(cc4nc(cc5[nH]c(cc1n2)c(C)c5CCC(=O)O)C(CCC(=O)O)=C4C)c(C)c3C=C [Molecule 91, C=CC1=C(C)/C/2=C/c3[nH]c(c(c3C=C)C)/C=C/3\N=C(/C=c/4\[nH]/c(=C\C1=N2)/c(C)c4CCC(=O)O)C(=C3C)CCC(=O)O]",DNA Pol,[1],102
same,% inhibition Apo pol 10',DRC-1; 10'; conc 2.5,61.8295%
same,% inhibition Apo pol 10',DRC-1; 10'; conc 5,90.2247%
same,% inhibition Apo pol 10',DRC-1; 10'; conc 10,94.5739%
same,% inhibition Apo pol 10',DRC-1; 10'; conc 20,93.6963%
same,% inhibition Apo pol 10',DRC-1; 10'; conc 40,92.3128%
same,% inhibition Apo pol 10',DRC-1; 10'; conc 80,90.9627%
same,% inhibition Apol 90',DRC-1; 90'; conc 2.5,48.9007%
same,% inhibition Apol 90',DRC-1; 90'; conc 5,79.3077%
same,% inhibition Apol 90',DRC-1; 90'; conc 10,94.695%
same,% inhibition Apol 90',DRC-1; 90'; conc 20,95.5429%
same,% inhibition Apol 90',DRC-1; 90'; conc 40,94.7622%
same,% inhibition Apol 90',DRC-1; 90'; conc 80,94.048%
same,% inhibition apPOL 180',DRC-1; 180'; conc 2.5,35.65%
same,% inhibition apPOL 180',DRC-1; 180'; conc 5,71.3476%
same,% inhibition apPOL 180',DRC-1; 180'; conc 10,94.4178%
same,% inhibition apPOL 180',DRC-1; 180'; conc 20,96.2534%
same,% inhibition apPOL 180',DRC-1; 180'; conc 40,95.7686%
same,% inhibition apPOL 180',DRC-1; 180'; conc 80,95.2166%
same,% inhibition Apo pol 5',DRC-2; 5'; conc 2.5,48%
same,% inhibition Apo pol 5',DRC-2; 5'; conc 5,50%
same,% inhibition Apo pol 5',DRC-2; 5'; conc 10,53%
same,% inhibition Apo pol 5',DRC-2; 5'; conc 20,49%
same,% inhibition Apo pol 5',DRC-2; 5'; conc 40,49%
same,% inhibition Apo pol 5',DRC-2; 5'; conc 80,48%
same,% inhibition Apo pol 5',DRC-2; 5'; concentration 2.5,48%
same,% inhibition Apo pol 5',DRC-2; 5'; concentration 20,49%
same,% inhibition Apo pol 5',DRC-2; 5'; concentration 40,49%
same,% inhibition Apo pol 5',DRC-2; 5'; concentration 80,48%
same,% inhibition Apol 40',DRC-2; 40'; conc 2.5,44%
same,% inhibition Apol 40',DRC-2; 40'; conc 5,57%
same,% inhibition Apol 40',DRC-2; 40'; conc 10,70%
same,% inhibition Apol 40',DRC-2; 40'; conc 20,70%
same,% inhibition Apol 40',DRC-2; 40'; conc 40,69%
same,% inhibition Apol 40',DRC-2; 40'; conc 80,69%
same,% inhibition Apol 40',DRC-2; 40'; concentration 10,70%
same,% inhibition Apol 40',DRC-2; 40'; concentration 20,70%
same,% inhibition Apol 40',DRC-2; 40'; concentration 40,69%
same,% inhibition Apol 40',DRC-2; 40'; concentration 80,69%
same,% inhibition ApPOL 90',DRC-2; 90'; conc 2.5,40%
same,% inhibition ApPOL 90',DRC-2; 90'; conc 5,56%
same,% inhibition ApPOL 90',DRC-2; 90'; conc 10,74%
same,% inhibition ApPOL 90',DRC-2; 90'; conc 20,76%
same,% inhibition ApPOL 90',DRC-2; 90'; conc 40,75%
same,% inhibition ApPOL 90',DRC-2; 90'; conc 80,75%
same,% inhibition ApPOL 90',DRC-2; 90'; concentration 20,76%
same,% inhibition ApPOL 90',DRC-2; 90'; concentration 40,75%
same,% inhibition ApPOL 90',DRC-2; 90'; concentration 80,75%
same,% inhibition apPOL 180',DRC-2; 180'; conc 2.5,25%
same,% inhibition apPOL 180',DRC-2; 180'; conc 5,49%
same,% inhibition apPOL 180',DRC-2; 180'; conc 10,76%
same,% inhibition apPOL 180',DRC-2; 180'; conc 20,80%
same,% inhibition apPOL 180',DRC-2; 180'; conc 40,80%
same,% inhibition apPOL 180',DRC-2; 180'; conc 80,79%
same,% inhibition apPOL 180',DRC-2; 180'; concentration 5,49%
same,% inhibition apPOL 180',DRC-2; 180'; concentration 10,76%
same,% inhibition apPOL 180',DRC-2; 180'; concentration 20,80%
same,% inhibition apPOL 180',DRC-2; 180'; concentration 40,80%
same,DNA Pol,[2],102
C=CC1=C(C)c2cc3[nH]c(cc4nc(cc5[nH]c(cc1n2)c(C)c5CCC(=O)O)C(CCC(=O)O)=C4C)c(C)c3C=C [Molecule 91],IC50,[3],< 2.5 µM
"Cc1cc(C)nc(Nc2nc(CC(=O)Nc3nc(-c4ccco4)cs3)cs2)n1 [Molecule 92, O=C(Nc1scc(n1)c1ccco1)Cc1csc(n1)Nc1nc(C)cc(n1)C]",% inhibition Apo pol 10',DRC-1; concentration 2.5; 10',-6.381%
same,% inhibition Apol 90',DRC-1; concentration 2.5; 90',-8.504%
same,% inhibition apPOL 180',DRC-1; concentration 2.5; 180',-14.5806%
same,% inhibition Apo pol 10',DRC-1; concentration 5; 10',13.7887%
same,% inhibition Apol 90',DRC-1; concentration 5; 90',3.55%
same,% inhibition apPOL 180',DRC-1; concentration 5; 180',-5.24%
same,% inhibition Apo pol 10',DRC-1; concentration 10; 10',59.5511%
same,% inhibition Apol 90',DRC-1; concentration 10; 90',43.4607%
same,% inhibition apPOL 180',DRC-1; concentration 10; 180',29.1586%
same,% inhibition Apo pol 10',DRC-1; concentration 20; 10',80.2022%
same,% inhibition Apol 90',DRC-1; concentration 20; 90',69.8736%
same,% inhibition apPOL 180',DRC-1; concentration 20; 180',60.6937%
same,% inhibition Apo pol 10',DRC-1; concentration 40; 10',86.2847%
same,% inhibition Apol 90',DRC-1; concentration 40; 90',85.2413%
same,% inhibition apPOL 180',DRC-1; concentration 40; 180',83.5937%
same,% inhibition Apo pol 10',DRC-1; concentration 80 (unit not given); 10',83.354%
same,% inhibition Apol 90',DRC-1; concentration 80; 90',86.9682%
same,% inhibition apPOL 180',DRC-1; concentration 80; 180',88.1815%
same,% inhibition Apo pol 5',DRC-2; 5'; concentration 5,6%
same,% inhibition Apo pol 5',DRC-2; 5'; concentration 40,41%
same,% inhibition Apol 40',DRC-2; 40'; concentration 10,41%
same,% inhibition Apol 40',DRC-2; 40'; concentration 20,59%
same,% inhibition Apol 40',DRC-2; 40'; concentration 80,59%
same,% inhibition ApPOL 90',DRC-2; 90'; concentration 5,6%
same,% inhibition Apo pol 5',DRC-2; concentration 2.5; 5',7%
same,% inhibition Apol 40',DRC-2; concentration 2.5; 40',9%
same,% inhibition ApPOL 90',DRC-2; concentration 2.5; 90',7.61%
same,% inhibition apPOL 180',DRC-2; concentration 2.5; 180',3.63%
same,% inhibition Apo pol 5',DRC-2; concentration 5; 5',6%
same,% inhibition Apol 40',DRC-2; concentration 5; 40',5.45%
same,% inhibition ApPOL 90',DRC-2; concentration 5; 90',6%
same,% inhibition apPOL 180',DRC-2; concentration 5; 180',0.203%
same,% inhibition Apo pol 5',DRC-2; concentration 10; 5',37%
same,% inhibition Apol 40',DRC-2; concentration 10; 40',41%
same,% inhibition ApPOL 90',DRC-2; concentration 10; 90',39%
same,% inhibition apPOL 180',DRC-2; concentration 10; 180',30%
same,% inhibition Apo pol 5',DRC-2; concentration 20; 5',43%
same,% inhibition Apol 40',DRC-2; concentration 20; 40',59%
same,% inhibition ApPOL 90',DRC-2; concentration 20; 90',60%
same,% inhibition apPOL 180',DRC-2; concentration 20; 180',57%
same,% inhibition Apo pol 5',DRC-2; concentration 40; 5',41%
same,% inhibition Apol 40',DRC-2; concentration 40; 40',65%
same,% inhibition ApPOL 90',DRC-2; concentration 40; 90',70%
same,% inhibition apPOL 180',DRC-2; concentration 40; 180',74%
same,% inhibition Apo pol 5',DRC-2; concentration 80; 5',29%
same,% inhibition Apol 40',DRC-2; concentration 80; 40',59%
same,% inhibition ApPOL 90',DRC-2; concentration 80; 90',66%
same,% inhibition apPOL 180',DRC-2; concentration 80; 180',73%
same,DNA Pol,"primary screen value of the 186 hits; unit not given; 90 min, 10 µM",70
same,DNA Pol,"primary screen value; head prints only 'DNA Pol'; 90 min, 10 µM",70
Cc1cc(C)nc(Nc2nc(CC(=O)Nc3nc(-c4ccco4)cs3)cs2)n1 [Molecule 92],IC50,[3],8.58 µM
Cc1nc2c(oc3nc(-c4ccoc4)c4c(c32)CC(C)(C)OC4)c(-c2ccccc2)c1C(=O)O [Molecule 93],IC50,[3],6.29 µM

# — paper PMC9090415, “Discovery of small molecule inhibitors of Plasmodium falciparum apicoplast DNA polymerase” (Journal of Enzyme Inhibition and Medicinal Chemistry, 2022)
